This note sets out measurements from EP0891764B1, “Ethanolic solutions of N-pentadecanoylisoleucine and use thereof in cosmetics” (KASHIMA OIL COMPANY, priority 1997, dated 1999).

A short description of data set [1]: Solubility in 70% ethanol at 10°C.
Protocol: A group of eight male mice aged 8 weeks of C3H series with a body weight of 18 to 24g was subjected to depilation at a back portion thereof in a size of about 2× 3.5 cm. Then, each of the N-acylamino acid compounds as shown in Table 1 was dissolved in ethanol to a concentration of 1% by weight as a sample to be tested. Then 0.1 mℓ of the sample were applied to the depilated back portions of the mice once a day over a period of 3 weeks to visually observe the hair growth state. An evaluation was made of the hair growth effect by visually observing the state of trichogenous promotion in comparison with the back portions coated only with ethanol on the basis of the criterion in Table 1.
Data set [2] relates to male mice aged 8 weeks of C3H series. In words: Hair growth (retrichogenous) test on depilated backs of mice, visual observation versus ethanol only. The data set is classed as in vivo. On the set-up: key: ⓞ: rapid and excellent retrichogenous action; ○: rapid and good retrichogenous action; Δ: slow and slight retrichogenous action. To be noted: 1% by weight in ethanol, 0.1 mℓ applied to depilated back once a day over 3 weeks; visual comparison with ethanol only. The text has this: The results are given also in Table 1. […] Table 1

The structures appear in SMILES notation.

Take `CCCCCCCCCCCCCCC(=O)N[C@@H](C)C(=O)O` [Comp. Example 1, N-PDNY-L-alanine]: the “Solubility (w/w %)” value in data set [1] is on record as 0.8 w/w %. In data set [2], the Retrichogenous effect entry is given as “ⓞ”. Turning to `CCCCCCCCCCCCCCC(=O)N[C@@H](CC(C)C)C(=O)O` [Comp. Example 2, N-PDNY-L-leucine], the “Solubility (w/w %)” value in data set [1] was 2.1 w/w %. For the same compound, the Retrichogenous effect result in data set [2] was “ⓞ”.

For `CCCCCCCCCCCCCCC(=O)N[C@@H](CCSC)C(=O)O` [Comp. Example 3, N-PDNY-L-methionine], the Retrichogenous effect entry in data set [2] is on record as “ⓞ”. In the case of `CCCCCCCCCCCCCCC(=O)N[C@H](C(=O)O)C(C)C` [Comp. Example 4, N-PDNY-L-valine], the “Solubility (w/w %)” value in data set [1] was determined as 2.5 w/w %. Besides, the Retrichogenous effect entry in data set [2] is recorded as “ⓞ”. On the same counts, the results for `CCCCCCCCCCCCCCC(=O)N[C@@H](Cc1ccccc1)C(=O)O` [Comp. Example 5, N-PDNY-L-phenyl-alanine] are 3.7 w/w % and “ⓞ”. In the case of `CCCCCCCCCCCCCCC(=O)N[C@@H](Cc1ccc(O)cc1)C(=O)O` [Comp. Example 6, N-PDNY-L-tyrosine], the “Solubility (w/w %)” value in data set [1] is reported as 0.7 w/w %. Also, the Retrichogenous effect result in data set [2] is “ⓞ”. On to `CCCCCCCCCCCCCCC(=O)N[C@@H](CC(=O)O)C(=O)O` [Comp. Example 7, N-PDNY-L-asparatic acid], for which the “Solubility (w/w %)” value in data set [1] is reported as 0.3 w/w %. Moreover, the Retrichogenous effect result in data set [2] is reported as “○”. For `CCCCCCCCCCCCCCC(=O)N[C@H](C(=O)O)[C@@H](C)CC` [Example 1, N-pentadecanoyl-L-isoleucine] the same measures were 4.0 w/w % and “ⓞ”.
